Source: PMC8655237 (Journal of Advanced Research, 2021)
Where two headings read alike, the source gives them in different places.

Experiments:
PC-3 = test: SRB antiproliferative assay; type: cell-based; details: Homo sapiens, PC-3, 24 h, read-out: IC50 (SRB)
COX-2 = molecular target: T1, COX-2 (Homo sapiens, UniProt P35354); test: cell-based; details: IC50 COX-2, cell based
T1 sequence (P35354 18-604): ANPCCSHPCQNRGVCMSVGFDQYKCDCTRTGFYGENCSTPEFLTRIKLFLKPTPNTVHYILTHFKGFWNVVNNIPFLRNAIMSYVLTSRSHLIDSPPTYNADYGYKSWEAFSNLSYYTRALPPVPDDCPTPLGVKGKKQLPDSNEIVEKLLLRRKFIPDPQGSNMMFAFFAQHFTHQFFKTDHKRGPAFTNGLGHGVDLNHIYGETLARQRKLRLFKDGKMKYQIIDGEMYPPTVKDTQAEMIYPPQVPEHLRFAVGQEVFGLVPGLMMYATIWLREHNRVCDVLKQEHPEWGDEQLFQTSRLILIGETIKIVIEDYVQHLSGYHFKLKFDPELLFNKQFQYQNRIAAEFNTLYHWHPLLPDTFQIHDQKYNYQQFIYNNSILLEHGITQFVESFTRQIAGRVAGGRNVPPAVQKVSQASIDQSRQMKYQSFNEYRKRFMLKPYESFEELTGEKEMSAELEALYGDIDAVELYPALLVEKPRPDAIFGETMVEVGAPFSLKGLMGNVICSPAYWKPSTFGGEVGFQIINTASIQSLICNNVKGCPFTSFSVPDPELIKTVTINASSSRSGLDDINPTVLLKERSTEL

[1] = molecular target: T2, Ornithine decarboxylase (ODC) (Homo sapiens, UniProt P11926); test: ODC assay, cell-based; details: for IC50: IC50 ODC, cell based
T2 sequence (P11926 1-461): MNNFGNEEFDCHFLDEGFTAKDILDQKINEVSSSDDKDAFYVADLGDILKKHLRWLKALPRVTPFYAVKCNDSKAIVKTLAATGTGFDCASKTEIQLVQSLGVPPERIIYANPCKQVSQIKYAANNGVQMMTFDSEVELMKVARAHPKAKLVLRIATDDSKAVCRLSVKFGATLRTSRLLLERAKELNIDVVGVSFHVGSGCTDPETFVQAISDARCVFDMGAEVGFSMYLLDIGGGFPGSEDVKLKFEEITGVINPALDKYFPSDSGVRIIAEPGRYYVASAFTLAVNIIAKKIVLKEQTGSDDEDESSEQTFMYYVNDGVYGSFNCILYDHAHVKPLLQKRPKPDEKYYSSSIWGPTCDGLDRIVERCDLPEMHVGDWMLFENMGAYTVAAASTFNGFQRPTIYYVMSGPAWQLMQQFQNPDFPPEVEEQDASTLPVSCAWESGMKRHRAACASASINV

hyaluronidase (HYAL) = test: Hyaluronidase assay, cell-based; parameters: species or system human
HYAL mRNA = test: Real-time qPCR expression analysis; type: cell-based, human; details: GAPDH internal control
ODC mRNA = test: Real-time qPCR expression analysis; type: cell-based, human; details: GAPDH internal control
CAT D mRNA = test: Real-time qPCR expression analysis; type: cell-based, human; details: GAPDH internal control
FaDu = test: Cell cycle analysis by flow cytometry; type: cell-based, human; details: 24 h
MDA-MB-231 = test: Cell cycle analysis by flow cytometry; type: cell-based, human; details: MDA-MB-231, 24 h
tubulin protein = tubulin protein (Sus scrofa, UniProt P02550+P02554); test: Tubulin polymerization assay; type: biochemical; details: 100 μM
Sequence of tubulin protein (P02550 whole entry): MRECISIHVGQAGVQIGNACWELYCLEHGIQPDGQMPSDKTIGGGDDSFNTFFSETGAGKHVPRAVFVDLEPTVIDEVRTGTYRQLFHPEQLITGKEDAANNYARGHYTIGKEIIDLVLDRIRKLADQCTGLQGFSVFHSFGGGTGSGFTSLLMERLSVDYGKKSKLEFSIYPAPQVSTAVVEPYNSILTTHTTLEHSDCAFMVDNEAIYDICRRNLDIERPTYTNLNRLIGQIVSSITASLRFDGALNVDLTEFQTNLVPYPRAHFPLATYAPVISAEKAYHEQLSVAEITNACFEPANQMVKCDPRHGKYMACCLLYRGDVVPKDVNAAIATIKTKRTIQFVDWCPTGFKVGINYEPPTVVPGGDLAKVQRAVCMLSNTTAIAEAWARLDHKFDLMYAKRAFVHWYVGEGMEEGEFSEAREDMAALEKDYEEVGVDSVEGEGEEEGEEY
Sequence of tubulin protein (P02554 whole entry): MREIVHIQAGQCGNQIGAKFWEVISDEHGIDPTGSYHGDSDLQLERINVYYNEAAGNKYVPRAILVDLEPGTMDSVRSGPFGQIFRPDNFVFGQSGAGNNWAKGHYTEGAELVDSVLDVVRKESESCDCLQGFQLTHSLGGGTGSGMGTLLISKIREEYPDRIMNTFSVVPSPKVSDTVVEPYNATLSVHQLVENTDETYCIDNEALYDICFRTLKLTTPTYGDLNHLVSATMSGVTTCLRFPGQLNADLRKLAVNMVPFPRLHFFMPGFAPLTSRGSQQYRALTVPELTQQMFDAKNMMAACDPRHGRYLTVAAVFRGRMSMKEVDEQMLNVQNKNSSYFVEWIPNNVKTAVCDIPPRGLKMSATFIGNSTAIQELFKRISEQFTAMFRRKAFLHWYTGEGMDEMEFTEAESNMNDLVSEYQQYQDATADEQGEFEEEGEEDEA

A431 cells = test: Mitochondrial membrane potential; type: cell-based, human; details: for total of FITC mean (Rh123): A431, flow cytometry
PI3K = PI3K quantification by ELISA in A431 cells; type: cell-based, human; details: A431, 100 µM, 24 h
[2] = MDA-MB-231, with respect to control

## CC(C)[C@@H]1CC[C@@H](C)C[C@@H]1O [neomenthol, (+)-Neomenthol]
PC-3
  IC50: 16.4 ± 3.87 µM
COX-2; A431
  IC50: 39.1 ± 6.39 µM
COX-2; FaDu
  IC50: 87.2 ± 5.24 µM
COX-2; PC-3
  IC50: 62.2 ± 10.7 µM
[1]; A549, PC-3, A431, and FaDu cell lines
  percent inhibition of ODC: below 50%
[1]; K562
  IC50: 29.6 ± 2.54 µM
[1]; MDA-MB-231
  IC50: 57.2 ± 2.84 µM
Hyaluronidase (HYAL); read-out: IC50 HYAL, A431
  IC50: 12.81 ± 0.01 µM
Hyaluronidase (HYAL); read-out: IC50 HYAL, A549
  IC50: 36.8 ± 5.65 µM
HYAL mRNA; A431, with respect to control
  HYAL mRNA expression level: 1.52 fold change
HYAL mRNA; FaDu, with respect to control
  HYAL mRNA expression level: 1.06 fold change
HYAL mRNA; PC-3, with respect to control
  HYAL mRNA expression level: 1.37 fold change
ODC mRNA; A431, with respect to control
  ODC mRNA expression level: 1.15 fold change
ODC mRNA; A549, with respect to control
  ODC mRNA expression level: 1.18 fold change
ODC mRNA; FaDu, with respect to control
  ODC mRNA expression level: 1.08 fold change
ODC mRNA; [2]
  ODC mRNA expression level: 1.05 fold change
ODC mRNA; PC-3, with respect to control
  ODC mRNA expression level: 1.22 fold change
CAT D mRNA; A431, with respect to control
  CAT D mRNA expression level: 1.19 fold change
CAT D mRNA; A549, with respect to control
  CAT D mRNA expression level: 1.37 fold change
CAT D mRNA; FaDu, with respect to control
  CAT D mRNA expression level: 1.31 fold change
CAT D mRNA; K562, with respect to control
  CAT D mRNA expression level: 1.24 fold change
CAT D mRNA; [2]
  CAT D mRNA expression level: 1.15 fold change
CAT D mRNA; PC-3, with respect to control
  CAT D mRNA expression level: 1.35 fold change
FaDu
  cell cycle phase arrested: G2/M phase
MDA-MB-231
  cell cycle phase arrested: arrests the S-phase
Tubulin protein
  effect on tubulin polymerization: inhibit the polymerization of α and β tubulin
A431 cells; 10 µM
  total of FITC mean (Rh123): 3101 ± 1.41
A431 cells; 100 µM
  total of FITC mean (Rh123): 2913 ± 1.41
A431 cells; A431, highest concentration, 24 h, spectrofluorometer
  percent decrease of mitochondrial membrane potential concerning control: 13.05 ± 2.6%
PI3K
  PI3K level (ng/mg of protein): 0.006 ± 0.00021 ng/mg
